Assay results from ChEMBL document CHEMBL1201862, “PubChem BioAssay data set” (2004).
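Dose response: 5 concentrations. Exposure: 48 h. Format: 96-well plates. Endpoint: linear interpolation; highest concentration if not reached. GI50: concentration for 50% inhibition of growth.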 Calls of active or inactive are those of the source. Cut-off read from the data, not from the text of the source: active = GI50 up to about 1.1 µM and inactive = higher. Square brackets hold non-standard residues; d marks the D form. Peptide text beside a SMILES is read from it. pGlu = O=C1CC[C@@H](C(=O)O)N1; Thz = O=C(O)[C@@H]1CSCN1

Key:
Experiment in all cases: NCI anticancer screen, dose series, 48 h
A498 = tested on: A498
COLO 205 = tested on: COLO 205
HCC 2998 = tested on: HCC 2998
MCF7 = tested on: MCF7
MDA-MB-231 = tested on: MDA-MB-231
MDA-MB-435 = tested on: MDA-MB-435
MOLT-4 = tested on: MOLT-4
Malme-3M = tested on: Malme-3M
NCI-H522 = tested on: NCI-H522
NCI/ADR-RES = tested on: NCI/ADR-RES
SK-MEL-28 = tested on: SK-MEL-28
SK-MEL-2 = tested on: SK-MEL-2
SN12C = tested on: SN12C
SNB-19 = tested on: SNB-19
SNB-75 = tested on: SNB-75
SR = tested on: SR
U-251 = tested on: U-251
UO-31 = tested on: UO-31
HT-29 = tested on: HT-29
SK-OV-3 = tested on: SK-OV-3

Measured: GI50

Cc1cc(C)c(O)c(CN2CCN(C(C)C)CCN(C(C)C)CC2)c1
inactive: A498 > 100 µM | COLO 205 18.6 µM | HCC 2998 18.8 µM | MCF7 20.8 µM | MDA-MB-231 48.3 µM | MDA-MB-435 18 µM | MOLT-4 11.7 µM | Malme-3M 13.8 µM | NCI-H522 16.1 µM | NCI/ADR-RES 25.9 µM | SK-MEL-28 24.7 µM | SK-MEL-2 37.8 µM | SN12C 27.5 µM | SNB-19 63.1 µM | SNB-75 33.7 µM | SR 17.9 µM | U-251 37 µM | UO-31 18.6 µM

COc1cccc(N2N=C3c4ccccc4-n4c(nc5ccccc54)C3C2N)c1 (stereo unspecified)
inactive: A498 > 100 µM | COLO 205 > 100 µM | HCC 2998 > 100 µM | HT-29 > 100 µM | MCF7 79.6 µM | MDA-MB-231 92.3 µM | MDA-MB-435 62.8 µM | Malme-3M 66.1 µM | NCI-H522 > 100 µM | NCI/ADR-RES > 100 µM | SK-MEL-28 > 100 µM | SK-MEL-2 > 100 µM | SN12C > 100 µM | SNB-19 > 100 µM | SNB-75 > 100 µM | SR 86.5 µM | U-251 > 100 µM | UO-31 > 100 µM

O=C1C=C2C(=NC34CCCCC3C(c3ccccc3)C3=C(c5ccccc5CC3)N24)c2ccccc21 (stereo unspecified)
inactive: A498 > 10 µM | COLO 205 > 10 µM | HCC 2998 > 10 µM | HT-29 > 10 µM | MCF7 > 10 µM | MDA-MB-231 > 10 µM | MDA-MB-435 > 10 µM | MOLT-4 > 10 µM | Malme-3M > 10 µM | NCI-H522 > 10 µM | NCI/ADR-RES > 10 µM | SK-MEL-28 > 10 µM | SK-MEL-2 > 10 µM | SK-OV-3 > 10 µM | SN12C > 10 µM | SNB-19 > 10 µM | SNB-75 8.95 µM | SR 8.22 µM | U-251 > 10 µM

O=C1CC[C@@H](C(=O)N2CSC[C@H]2C(=O)O)N1 [PIDOTIMOD] ([pGlu]-[Thz]-OH)
inactive: A498 > 100 µM | HCC 2998 > 100 µM | HT-29 > 100 µM | MCF7 > 100 µM | MDA-MB-231 > 100 µM | MDA-MB-435 > 100 µM | MOLT-4 > 100 µM | Malme-3M > 100 µM | NCI-H522 > 100 µM | NCI/ADR-RES > 100 µM | SK-MEL-28 > 100 µM | SK-MEL-2 > 100 µM | SK-OV-3 > 100 µM | SN12C > 100 µM | SNB-19 > 100 µM | SNB-75 > 100 µM | SR > 100 µM | UO-31 > 100 µM

COc1cc(Br)c(CC2C3=C(CCN2C(=O)C2CCC2)CC2(CC3)OCCO2)cc1O (stereo unspecified)
inactive: A498 62.2 µM | COLO 205 18.2 µM | HCC 2998 28.8 µM | HT-29 24.2 µM | MCF7 28.6 µM | MDA-MB-231 87.1 µM | MDA-MB-435 23.6 µM | MOLT-4 43.3 µM | Malme-3M 65 µM | NCI-H522 27.7 µM | NCI/ADR-RES 26.5 µM | SK-MEL-28 93.5 µM | SK-MEL-2 > 100 µM | SK-OV-3 68.2 µM | SN12C 84.1 µM | SNB-19 > 100 µM | SNB-75 17.2 µM | SR 28.1 µM | U-251 > 100 µM

CCC(=O)O[C@H]1CC[C@H]2[C@@H]3CCC4=C/C(=N/OC(=O)c5cccc6cc7ccccc7nc56)CC[C@]4(C)[C@H]3CC[C@]12C
inactive: A498 > 100 µM | COLO 205 41 µM | HCC 2998 > 100 µM | HT-29 42.9 µM | MCF7 42.2 µM | MDA-MB-231 > 100 µM | MDA-MB-435 38.8 µM | MOLT-4 > 100 µM | Malme-3M 29.2 µM | NCI-H522 41.4 µM | NCI/ADR-RES 60.4 µM | SK-MEL-28 90.2 µM | SK-MEL-2 55.2 µM | SK-OV-3 > 100 µM | SN12C > 100 µM | SNB-19 70.1 µM | SNB-75 83.8 µM | SR 67.9 µM | U-251 51.9 µM
